One experiment concerns the target T1, c-Abl (Homo sapiens, UniProt P00519).
T1 construct: The His-tagged kinase domain of c-Abl is cloned and expressed in the baculovirus/Sf9 system; His; made in house; host or cells: baculovirus/Sf9
T1 sequence (P00519 242-493 limits assumed): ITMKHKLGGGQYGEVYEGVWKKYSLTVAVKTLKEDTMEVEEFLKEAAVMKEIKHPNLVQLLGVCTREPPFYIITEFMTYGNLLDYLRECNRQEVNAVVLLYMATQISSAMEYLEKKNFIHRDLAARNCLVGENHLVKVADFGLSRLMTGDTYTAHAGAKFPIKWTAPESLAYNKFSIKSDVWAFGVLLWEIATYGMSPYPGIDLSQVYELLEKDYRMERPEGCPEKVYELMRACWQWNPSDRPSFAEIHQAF
In words: Test for activity against c-Abl protein tyrosine kinase (filter binding assay). It is filed as biochemical. Here is the method:
Test for activity against c-Abl protein tyrosine kinase. The test is conducted as a filter binding assay as follows: The His-tagged kinase domain of c-Abl is cloned and expressed in the baculovirus/Sf9 system as described by Bhat et al., J Biol. Chem. 272, 16170-5 (1997). A protein of 37 kD (c-Abl kinase) is purified by a two-step procedure over a Cobalt metal chelate column followed by an anion exchange column with a yield of 1-2 mg/L of Sf9 cells. The purity of the c-Abl kinase is >90% as judged by SDS-PAGE after Coomassie blue staining. The assay contains: c-Abl kinase (50 ng), 20 mM Tris.HCl, pH 7.5, 10 mM MgCl2, 10 μM Na3VO4, 1 mM DTT and 0.06 μCi/assay [γ^33 P]-ATP (5 μM ATP) using 30 μg/mL poly-Ala,Glu,Lys,Tyr-6:2:5:1 (Poly-AEKY, Sigma P1152) in the presence of 1% DMSO, total volume of 30 μL. Reactions are terminated by adding 10 μL of 250 mM EDTA, and 30 μL of the reaction mixture is transferred onto Immobilon-PVDF membrane (Millipore, Bedford, Mass., USA) previously soaked for 5 min with methanol, rinsed with water, then soaked for 5 min with 0.5% H3PO4 and mounted on vacuum manifold with disconnected vacuum source. After spotting all samples, vacuum is connected and each well rinsed with 200 μL 0.5% H3PO4. Membranes are removed and washed on a shaker with 0.5% H3PO4 (4 times) and once with ethanol. Membranes are counted after drying at ambient temperature, mounting in Packard TopCount 96-well frame, and addition of 10 μL/well of Microscint™ (Packard).
(§1) Enzymatic (c-Abl, KDR, Flt3) in vitro inhibition data are presented as % inhibition at 10 μM. The measurements are made as described above in the general description.

The target in a further experiment is KDR (Homo sapiens, UniProt P35968). In words: Enzymatic KDR in vitro inhibition. It is filed as biochemical. Here is the method:
Test for activity against VEGF-receptor tyrosine kinase. The test is conducted using Flt-1 VEGF-receptor tyrosine kinase. The detailed procedure is as follows: 30 μL kinase solution (10 ng of the kinase domain of Flt-1, Shibuya et al., Oncogene 5, 519-24 [1990]) in 20 mM Tris.HCl pH 7.5, 3 mM manganese dichloride (MnCl2), 3 mM magnesium chloride (MgCl2), 10 μM sodium vanadate, 0.25 mg/mL polyethylenglycol (PEG) 20000, 1 mM dithiothreitol and 3 μg/μL poly(Glu,Tyr) 4:1 (Sigma, Buchs, Switzerland), 8 μM [^33P]-ATP (0.2 μCi), 1% DMSO, and 0 to 100 μM of the compound to be tested are incubated together for 10 minutes at room temperature. The reaction is then terminated by the addition of 10 μL 0.25 M ethylenediaminetetraacetate (EDTA) pH 7. Using a multichannel dispenser (LAB SYSTEMS, USA), an aliquot of 20 μL is applied to a PVDF (=polyvinyl difluoride) Immobilon P membrane (Millipore, Bedford, USA), through a Gibco-BRL microtiter filter manifold and connected to a vacuum. Following complete elimination of the liquid, the membrane is washed 4 times successively in a bath containing 0.5% phosphoric acid (H3PO4) and once with ethanol, incubated for 10 minutes each time while shaking, then mounted in a Hewlett Packard TopCount Manifold and the radioactivity measured after the addition of 10 μL Microscint® (β-scintillation counter liquid). IC50-values are determined by linear regression analysis of the percentages for the inhibition of each compound in at least four concentrations (as a rule 0.01, 0.1, 1.0 and 10 μmol).
as §1

The record followed here is patent US7956053B2, “Inhibitors of tyrosine kinases” (Novartis AG, priority 2002, dated 2011).

KDR, sequence (P35968 20-1356): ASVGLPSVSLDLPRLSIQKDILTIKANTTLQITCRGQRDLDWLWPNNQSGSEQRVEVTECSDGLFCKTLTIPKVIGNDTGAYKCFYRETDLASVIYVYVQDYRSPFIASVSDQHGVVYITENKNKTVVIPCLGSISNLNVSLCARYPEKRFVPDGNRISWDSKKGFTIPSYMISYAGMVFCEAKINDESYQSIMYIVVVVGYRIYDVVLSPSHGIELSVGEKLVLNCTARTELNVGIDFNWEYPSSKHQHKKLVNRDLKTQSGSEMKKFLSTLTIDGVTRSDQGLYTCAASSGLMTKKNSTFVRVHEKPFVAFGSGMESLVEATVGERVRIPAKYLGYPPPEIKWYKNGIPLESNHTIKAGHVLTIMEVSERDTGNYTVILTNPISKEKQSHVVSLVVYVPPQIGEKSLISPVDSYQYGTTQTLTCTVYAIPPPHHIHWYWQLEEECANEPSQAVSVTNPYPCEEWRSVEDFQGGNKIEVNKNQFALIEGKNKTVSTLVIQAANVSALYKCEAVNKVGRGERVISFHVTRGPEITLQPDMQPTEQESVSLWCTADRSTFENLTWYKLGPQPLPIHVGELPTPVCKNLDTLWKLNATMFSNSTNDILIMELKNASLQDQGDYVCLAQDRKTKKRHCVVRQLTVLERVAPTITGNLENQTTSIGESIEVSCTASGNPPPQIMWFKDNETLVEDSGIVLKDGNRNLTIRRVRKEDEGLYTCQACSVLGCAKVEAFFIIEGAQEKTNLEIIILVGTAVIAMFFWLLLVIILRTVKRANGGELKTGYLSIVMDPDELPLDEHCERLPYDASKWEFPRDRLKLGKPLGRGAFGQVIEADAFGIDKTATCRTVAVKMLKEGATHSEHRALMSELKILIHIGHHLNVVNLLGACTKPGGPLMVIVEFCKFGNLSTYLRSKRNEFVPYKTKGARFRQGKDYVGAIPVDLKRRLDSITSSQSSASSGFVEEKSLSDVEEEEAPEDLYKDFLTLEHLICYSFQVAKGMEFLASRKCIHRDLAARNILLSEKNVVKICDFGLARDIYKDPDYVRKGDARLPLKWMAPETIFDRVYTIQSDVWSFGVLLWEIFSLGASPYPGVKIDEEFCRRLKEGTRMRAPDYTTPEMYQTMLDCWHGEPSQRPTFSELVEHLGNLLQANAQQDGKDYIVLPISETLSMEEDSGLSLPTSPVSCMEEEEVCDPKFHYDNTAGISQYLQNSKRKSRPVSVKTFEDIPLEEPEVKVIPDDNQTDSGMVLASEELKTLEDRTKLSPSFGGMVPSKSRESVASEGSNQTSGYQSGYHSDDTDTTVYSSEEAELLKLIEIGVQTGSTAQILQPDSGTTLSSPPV

As to `COc1ccc(N2CCN(C(=O)c3ccc(C)c(Nc4nccc(-c5cccnc5)n4)c3)CC2)cc1` [Example 36, 1-(4-Methoxyphenyl)-4-[4-methyl-3-[[4-(3-pyridinyl)-2-pyrimidinyl]amino]-benzoyl]piperazine], the inhibition at 10 µM was 57% on c-Abl and 77% against KDR.

As for `Cc1ccc(C(=O)N2CCN(c3ccncc3)CC2)cc1Nc1nccc(-c2cccnc2)n1` [Example 37, 1-[4-Methyl-3-[[4-(3-pyridinyl)-2-pyrimidinyl]amino]benzoyl]-4-(4-pyridinyl)-piperazine], the inhibition at 10 µM at c-Abl amounted to 28%; at KDR it was 82%.

For `Cc1ccc(C(=O)N2CCN(c3cnccn3)CC2)cc1Nc1nccc(-c2cccnc2)n1` [Example 38, 1-[4-Methyl-3-[[4-(3-pyridinyl)-2-pyrimidinyl]amino]benzoyl]-4-(pyrazinyl)-piperazine], the inhibition at 10 µM was determined as 74% on c-Abl and 91% against KDR.

`Cc1ccc(C(=O)N2CCN(Cc3ccccc3)CC2)cc1Nc1nccc(-c2cccnc2)n1` [Example 39, 1-[4-Methyl-3-[[4-(3-pyridinyl)-2-pyrimidinyl]amino]benzoyl]-4-(phenylmethyl)-piperazine]: the figures for the inhibition at 10 µM on c-Abl and on KDR were 64% and 74%, respectively.

Take `Cc1ccc(C(=O)N2CCN(C3CCCC3)CC2)cc1Nc1nccc(-c2cccnc2)n1` [Example 40, 1-Cyclopentyl-4-[4-methyl-3-[[4-(3-pyridinyl)-2-pyrimidinyl]amino]benzoyl]piperazine]: the inhibition at 10 µM on c-Abl is 65%; against KDR it was 78%.

As to `Cc1ccc(C(=O)N2CCN(CC(=O)N3CCOCC3)CC2)cc1Nc1nccc(-c2cccnc2)n1` [Example 41, 4-{{4-[4-Methyl-3-[[4-(3-pyridinyl)-2-pyrimidinyl]amino]benzoyl]-1-piperazinyl}acetyl}morpholine], the inhibition at 10 µM on c-Abl was determined as 13%; against KDR it was 52%.

For the compound `Cc1ccc(C(=O)N2CCN(CC(=O)N3CCCC3)CC2)cc1Nc1nccc(-c2cccnc2)n1` [Example 42, 1-[4-Methyl-3-[[4-(3-pyridinyl)-2-pyrimidinyl]amino]benzoyl]-4-[2-oxo-2-(1-pyrrolidinyl)ethyl]piperazine], the inhibition at 10 µM was found to be 32% on c-Abl and 56% on KDR.

Turning to `CCOC(=O)N1CCN(C(=O)c2ccc(C)c(Nc3nccc(-c4cccnc4)n3)c2)CC1` [Example 43, 4-[4-Methyl-3-[[4-(3-pyridinyl)-2-pyrimidinyl]amino]benzoyl]-1-piperazinecarboxylic acid ethyl ester], the results for the inhibition at 10 µM on c-Abl and against KDR were 37% and 63%, respectively.

For the compound `Cc1ccc(C(=O)N2CCc3ccccc3C2)cc1Nc1nccc(-c2cccnc2)n1` [Example 44, 2-[4-Methyl-3-[[4-(3-pyridinyl)-2-pyrimidinyl]amino]benzoyl]-1,2,3,4-tetrahydro-isoquinoline], the inhibition at 10 µM was 75% at c-Abl and 97% on KDR.

Regarding `COCCN(CCOC)C(=O)c1ccc(C)c(Nc2nccc(-c3cccnc3)n2)c1` [Example 45, N,N-bis(2-Methoxyethyl)-4-methyl-3-[[4-(3-pyridinyl)-2-pyrimidinyl]amino]benzamide], the inhibition at 10 µM was determined as 34% on c-Abl and 61% on KDR.

In the case of `Cc1ccc(C(=O)N2CCC(N3CCCCC3)CC2)cc1Nc1nccc(-c2cccnc2)n1` [Example 46, 1′-[4-Methyl-3-[[4-(3-pyridinyl)-2-pyrimidinyl]amino]benzoyl]-1,4′-bipiperidine], the inhibition at 10 µM at c-Abl amounted to 1%; against KDR, 43%.

For `CCOC(=O)CN(Cc1ccccc1)C(=O)c1ccc(C)c(Nc2nccc(-c3cccnc3)n2)c1` [Example 47, N-[4-Methyl-3-[[4-(3-pyridinyl)-2-pyrimidinyl]amino]benzoyl]-N-(phenylmethyl)-glycine ethyl ester], the inhibition at 10 µM was 39% on c-Abl and 74% against KDR.

Regarding `Cc1ccc(C(=O)Nc2cccc(Cl)c2)cc1Nc1nccc(-c2cccnc2)n1` [Example 48, N-(3-Chlorophenyl)-4-methyl-3-[[4-(3-pyridinyl)-2-pyrimidinyl]amino]benzamide], the inhibition at 10 µM at c-Abl was 90%; on KDR, 50%.

For `Cc1ccc(C(=O)NCC(c2ccccc2)c2ccccc2)cc1Nc1nccc(-c2cccnc2)n1` [Example 49, N-(2,2-Diphenylethyl)-4-methyl-3-[[4-(3-pyridinyl)-2-pyrimidinyl]amino]-benzamide], the figures for the inhibition at 10 µM at c-Abl and against KDR were 72% and 37%, respectively.

Regarding `Cc1ccc(C(=O)NC2CCc3ccccc32)cc1Nc1nccc(-c2cccnc2)n1` (centres unmarked) [Example 50, N-(2,3-Dihydro-1H-inden-1-yl)-4-methyl-3-[[4-(3-pyridinyl)-2-pyrimidinyl]amino]benzamide], the inhibition at 10 µM on c-Abl is 87%; against KDR it was 83%.

For the compound `Cc1ccc(C(=O)NC(c2ccccc2)c2ccccc2)cc1Nc1nccc(-c2cccnc2)n1` [Example 51, N-(Diphenylmethyl)-4-methyl-3-[[4-(3-pyridinyl)-2-pyrimidinyl]amino]benzamide], the inhibition at 10 µM at c-Abl came to 92%; against KDR it was 52%.

Take `Cc1ccc(C(=O)NCCN2CCCCC2)cc1Nc1nccc(-c2cccnc2)n1` [Example 52, 4-Methyl-N-[2-(1-piperidinyl)ethyl]-3-[[4-(3-pyridinyl)-2-pyrimidinyl]amino]benzamide]: the inhibition at 10 µM worked out at 78% at c-Abl and 37% on KDR.

Turning to `Cc1ccc(C(=O)Nc2cccc3c2CCCC3)cc1Nc1nccc(-c2cccnc2)n1` [Example 53, 4-Methyl-3-[[4-(3-pyridinyl)-2-pyrimidinyl]amino]-N-(5,6,7,8-tetrahydro-1-naphthalenyl)benzamide], the inhibition at 10 µM came out at 88% on c-Abl and 79% against KDR.

Regarding `Cc1ccc(C(=O)NCc2ccc(C(F)(F)F)cc2)cc1Nc1nccc(-c2cccnc2)n1` [Example 54, 4-Methyl-3-[[4-(3-pyridinyl)-2-pyrimidinyl]amino]-N-[[4-(trifluoromethyl)phenyl]methyl]benzamide], the inhibition at 10 µM came out at 69% on c-Abl and 74% at KDR.

As for `CCOCCNC(=O)c1ccc(C)c(Nc2nccc(-c3cccnc3)n2)c1` [Example 56, N-(2-Ethoxyethyl)-4-methyl-3-[[4-(3-pyridinyl)-2-pyrimidinyl]amino]benzamide], the inhibition at 10 µM at c-Abl is 40%; against KDR it was 44%.

As for `Cc1ccc(C(=O)NCCN2CCNC2=O)cc1Nc1nccc(-c2cccnc2)n1` [Example 57, 4-Methyl-N-[2-(2-oxo-1-imidazolidinyl)ethyl]-3-[[4-(3-pyridinyl)-2-pyrimidinyl]amino]benzamide], the inhibition at 10 µM came to 8% on c-Abl and 42% against KDR.

Consider `Cc1ccc(NC(=O)c2ccc(C)c(Nc3nccc(-c4cccnc4)n3)c2)nc1` [Example 58, 4-Methyl-N-(5-methyl-2-pyridinyl)-3-[[4-(3-pyridinyl)-2-pyrimidinyl]amino]benzamide], for which the inhibition at 10 µM at c-Abl was found to be 40%; on KDR, 26%.
